# How the values were obtained:
# 5HT2A sensor [1] = type: cell-based
# 5HT2A sensor [2] = type: cell-based; remark: listed apart in the source
# rat cortical neurons = assay: Neurite outgrowth in primary neuronal cultures assay; type: cell-based; set-up: key: A: Statistically significant mean increase as a percent of DMSO control at 10 μM or less; B: No statistically significant mean increase as a percent of DMSO control at 10 μM or less; conditions: 72h, vs DMSO control, 10 μM or less
# Excerpt: Neurite Outgrowth Assay. Neurite Outgrowth in Primary Neuronal Cultures Assay. Changes in the pattern of neurite outgrowth have been implicated in psychiatric and neurodegenerative disorders as well as traumatic injuries. The discovery of new compounds that can positively affect neuritogenesis are important for developing new therapeutics for neurological diseases. Measurement of neurite outgrowth of rat cortical neurons using an automated image-based assay was used to determine the neuroplastic effects of the compounds of the present disclosure. The neurite outgrowth assay was performed at Neurofit SAS (France) as described below.
# Pregnant Wistar rats (Janvier; France) were used for the study. They were delivered 6 days before their use. Upon arrival at Neurofit animal facility, they were housed one per cage and maintained in a room with controlled temperature (21-22° C.) and a reversed light-dark cycle (12 h/12h; lights on: 17:30-05:30; lights off: 05:30-17:30) with food and water available ad libitum.
# Female Wistar rats of 17 days gestation were killed by cervical dislocation and the fetuses were removed from the uterus. Their brains were placed in ice-cold medium of Leibovitz (L15, Gibco, Fisher bioblock, France). Cortices were dissected and meninges were carefully removed. The cortical neurons were dissociated by trypsinization for 30 min at 37° C. (trypsin-EDTA, Gibco) in presence of 0.1 mg/ml DNAse I (Roche, France). The reaction was stopped by addition of Dulbecco's Modified Eagle Medium (DMEM; Gibco) with 10% of fetal bovine serum (FBS; Gibco). The suspension was triturated with a 10-ml pipette and using a needle syringe 21G and centrifuged at 350×g for 10 min at room temperature. The pellet of dissociated cells was resuspended in a medium consisting of Neurobasal (Gibco) supplemented with 2% B27 supplement (Gibco), 0.5 mM L-Glutamine (Gibco), an antibiotic-antimicotic mixture. Viable cells were counted in a Neubauer cytometer using the trypan blue exclusion test (Sigma). Cells were seeded at a density of 10000 cells per well in 96-well plate (Costar) precoated with poly-L-lysine. Test compound at different concentrations were added to the cultures. Donepezil (positive control) was tested at 250 nM.
# After 72h (3 days) of plating, cultures were fixed with paraformaldehyde in PBS (4%, Sigma) for 30 min at 4° C. Then, cells were successively permeabilized with 0.1% Triton X100 for 30 min, saturated with PBS containing 3% of BSA and were incubated 1 h with anti-beta III tubulin antibody (Sigma) at 1/10 000 in PBS containing 0.5% of BSA. Cells were washed three times with PBS containing 0.5% of BSA, and they were incubated 1 h with goat anti-mouse antibody coupled with AF488 (Invitrogen A11001) diluted at 1/1000 in PBS containing 0.5% of BSA. Finally, nuclei were staining with DAPI 1 mg/ml at 1/1000 in PBS containing 0.5% of BSA. After rinsing with PBS, the plate was filmed and neurite networks were examined and analyzed using High-Content Screening (CellInsight, Thermo Scientific). The average number of neurites per neuron and the average total length of neurites per neuron were the main parameters analyzed. Analysis of data was performed using analysis of variance (ANOVA). The Fisher's Protected Least Significant Difference test was used for multiple comparisons. A p value ≤0.05 was considered significant. The software used is StatView 5.0 from SAS Institut.
# 5-HT2A [3] = molecular target: T1, 5-HT2A (Homo sapiens, UniProt P28223); assay: Serotonin 5-HT2A in vitro cellular IPOne agonism assay (HTRF); type: cell-based; set-up: host or cells: CHO-K1; conditions: CHO-K1 cells, 60 min
# Procedure: Serotonin 5-HT2AIn Vitro Cellular IPOne Agonism Assay. The 5-HT2AIPOne HTRF assay was performed at Epics Therapeutics S. A. (Belgium, FAST-0505I) using conventional methods. Briefly, CHO—K1 cells expressing human recombinant 5-HT2A receptor grown to mid-log phase in culture media without antibiotics were detached with PBS-EDTA, centrifuged, and resuspended in medium without antibiotics buffer. 20,000 cells were distributed in a 96 well plate and incubated overnight at 37° C. with 5% Co2.
# For agonist testing, the medium was removed and 20 μl of assay buffer plus 20 μl of test compound or reference agonist were added in each well. The plate was incubated for 60 min. at 37° C. with 5% CO2.
# (§1) After addition of the lysis buffer containing IP1-d2 and anti-IP1 cryptate detection reagents, plates were incubated 1-hour at room temperature, and fluorescence ratios were measured according to the manufacturer specification, with the HTRF kit.
# 5-HT2A [4] = molecular target: T1, 5-HT2A; assay: Serotonin 5-HT2A in vitro cellular IPOne antagonism assay (HTRF); type: cell-based; set-up: host or cells: CHO-K1; conditions: CHO-K1 cells, reference agonist a-Me-5HT
# Procedure: Serotonin 5-HT2AIn Vitro Cellular IPOne Antagonism Assay. The 5-HT2AIPOne HTRF assay was performed at Epics Therapeutics S. A. (Belgium, FAST-0505I) in antagonism mode using conventional methods. Briefly, CHO—K1 cells expressing human recombinant 5-HT2A receptor grown to mid-log phase in culture media without antibiotics were detached with PBS-EDTA, centrifuged, and resuspended in medium without antibiotics buffer. 20,000 cells were distributed in a 96 well plate and incubated overnight at 37° C. with 5% Co2.
# For antagonist testing, a reference agonist a-Me-5HT was added and fluorescence signal monitored for several minutes, followed by addition of 20 μl of assay buffer plus 20 μl of test compound or reference antagonist ketanserin, in each well. The plate was incubated for 60 min. at 37° C. with 5% CO2.
# as §1
# 5-HT2A [5] = molecular target: T1, 5-HT2A; assay: Serotonin 5-HT2A in vitro radioligand binding competition assay ([3H]-DOI); set-up: purchased Epics Therapeutics S. A. (Belgium), contract assay FAST-0505B; host or cells: membrane extracts; conditions: [3H]-DOI competition, membrane extracts; read-out: 5HT2A R[…] ACTIVITY
# Procedure: Serotonin 5-HT2AIn Vitro Radioligand Binding Competition Assay. The 5-HT2A radioligand binding competition assay was performed at Epics Therapeutics S. A. (Belgium, FAST-0505B) using conventional methods. Briefly, competition binding is performed in duplicate in the wells of a 96 well plate (Master Block, Greiner, 786201) containing binding buffer (optimized for each receptor), membrane extracts (amount of protein/well optimized for each receptor), radiotracer [3H]-DOI (final concentration optimized for each receptor) and test compound. Nonspecific binding was determined by co-incubation with 200-fold excess of cold competitor. The samples were incubated in a final volume of 0.1 ml at a temperature and for a duration optimized for each receptor and then filtered over filter plates. Filters were washed six times with 0.5 ml of ice-cold washing buffer (optimized for each receptor) and 50 µl of Microscint 20 (Packard) were added in each well. The plates were incubated 15 min on an orbital shaker and then counted with a TopCount™ for 1 min/well.
# T1 sequence (P28223 whole entry): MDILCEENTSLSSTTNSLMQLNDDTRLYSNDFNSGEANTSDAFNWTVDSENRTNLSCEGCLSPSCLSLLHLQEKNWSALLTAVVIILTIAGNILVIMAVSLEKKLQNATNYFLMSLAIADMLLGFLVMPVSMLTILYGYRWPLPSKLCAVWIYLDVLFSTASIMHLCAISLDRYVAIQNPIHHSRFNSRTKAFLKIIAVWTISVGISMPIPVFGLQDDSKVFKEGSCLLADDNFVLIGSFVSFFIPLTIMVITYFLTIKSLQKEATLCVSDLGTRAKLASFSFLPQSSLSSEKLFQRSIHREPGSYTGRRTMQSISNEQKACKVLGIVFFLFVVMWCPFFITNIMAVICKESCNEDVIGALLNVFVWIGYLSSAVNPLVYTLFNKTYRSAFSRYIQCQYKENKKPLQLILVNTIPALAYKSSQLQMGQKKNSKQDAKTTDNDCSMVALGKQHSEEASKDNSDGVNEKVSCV
SMILES,activation of the 5HT2A sensor assay in agonist mode (5HT2A sensor [1]),competition with 5-HT in the 5HT2A sensor assay in antagonist mode (5HT2A sensor [2]),INCREASE IN NEURITE BRANCHING (rat cortical neurons),INCREASE IN NEURITE LENGTH (rat cortical neurons),INCREASE IN NEURITE NUMBER (rat cortical neurons),EC50 (5-HT2A [3]),IC50 (5-HT2A [4]),IC50 (5-HT2A [5])
CCN(CC)C(=O)[C@@H]1C=C2c3cccc4[nH]c(Br)c(c34)C[C@H]2N(C)C1 [BOL148],do not activate the 5HT2A sensor assay in agonist mode,can compete with 5HT binding to 5HT2A,,,,,,
CCN(CC)CCc1c[nH]c2cc(F)ccc12 [Compound 6-F-DET],do not activate the 5HT2A sensor assay in agonist mode,can compete with 5HT binding to 5HT2A,,,,,,
"c1ccc2c3c([nH]c2c1)C[C@H]1CCCN1CC3 [Compound 20, (R)-1,2,3,5,6,11,12,12a-octahydropyrrolo[1′,2′:1,2]azepino[4,5-b]indole]",,,A,A,A,0.101 to 1 µM,1 to 10 µM,0.101 to 1 µM
"FC(F)(F)c1cccc2[nH]c3c(c12)CCN1CCCC1C3 (centres unmarked) [Compound 21, 7-(trifluoromethyl)-1,2,3,5,6,11,12,12a-octahydropyrrolo[1′,2′:1,2]azepino[4,5-b]indole]",,,A,A,B,> 10 µM,0.101 to 1 µM,1 to 10 µM
"c1ccc2c3c([nH]c2c1)CCN1CCC[C@@H]1C3 [Compound 22, (R)-1,2,3,5,6,7,12,12a-octahydropyrrolo[1′,2′:1,7]azepino[4,5-b]indole]",,,A,A,A,0.101 to 1 µM,0.101 to 1 µM,1 to 10 µM
"c1ccc2c3c([nH]c2c1)CCN1CCC[C@H]1C3 [Compound 23, (S)-1,2,3,5,6,7,12,12a-octahydropyrrolo[1′,2′:1,7]azepino[4,5-b]indole]",,,A,A,A,> 10 µM,0.01 to 0.1 µM,0.101 to 1 µM
"COc1ccc2c3c([nH]c2c1)CCN1CCC[C@@H]1C3 [Compound 24, (R)-9-methoxy-1,2,3,5,6,7,12,12a-octahydropyrrolo[1′,2′:1,7]azepino[4,5-b]indole]",,,A,A,A,> 10 µM,0.101 to 1 µM,1 to 10 µM
"COc1ccc2c3c([nH]c2c1)CCN1CCC[C@H]1C3 [Compound 25, (S)-9-methoxy-1,2,3,5,6,7,12,12a-octahydropyrrolo[1′,2′:1,7]azepino[4,5-b]indole]",,,A,A,A,> 10 µM,0.101 to 1 µM,> 10 µM
"COc1cccc2[nH]c3c(c12)C[C@H]1CCCN1CC3 [Compound 26, (R)-11-methoxy-1,2,3,5,6,7,12,12a-octahydropyrrolo[1′,2′:1,7]azepino[4,5-b]indole]",,,A,A,A,0.01 to 0.1 µM,< 0.01 µM,0.101 to 1 µM
"COc1cccc2[nH]c3c(c12)C[C@@H]1CCCN1CC3 [Compound 27, (S)-11-methoxy-1,2,3,5,6,7,12,12a-octahydropyrrolo[1′,2′:1,7]azepino[4,5-b]indole]",,,A,A,A,0.01 to 0.1 µM,0.01 to 0.1 µM,0.01 to 0.1 µM
"FC(F)(F)c1cccc2[nH]c3c(c12)CC1CCCN1CC3 (centres unmarked) [Compound 28, 11-(trifluoromethyl)-1,2,3,5,6,7,12,12a-octahydropyrrolo[1′,2′:1,7]azepino[4,5-b]indole]",,,A,A,A,1 to 10 µM,0.01 to 0.1 µM,0.101 to 1 µM
"CN(C)CCc1c[nH]c2ccccc12 [DMT, N,N-dimethyltryptamine]",activate the 5HT2A sensor assay in agonist mode,,,,,,,
COc1cc(CC(C)N)c(OC)cc1I (centres unmarked) [DOI],activate the 5HT2A sensor assay in agonist mode,,,,,,,
CN[C@H](C)Cc1ccc2c(c1)OCO2 [L-MDMA],do not activate the 5HT2A sensor assay in agonist mode,,,,,,,
CCN(CC)C(=O)[C@@H]1C=C2c3cccc4[nH]cc(c34)C[C@H]2N(C)C1 [LSD],activate the 5HT2A sensor assay in agonist mode,,,,,,,

# Source: patent publication US20260176253A1 (priority 2021, published 2026)
